Measurements published in PubChem BioAssay (NCI).
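These data come from cells grown in 96-well plates and exposed to compound for 48 hours at five concentrations. TGI denotes the concentration required for complete inhibition of growth.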

Columns and labels:
Experiment in all cases: NCI tumour cell line growth inhibition, 48 h
MDA-MB-231 breast = system: MDA-MB-231 breast
RPMI-8226 leukemia = system: RPMI-8226 leukemia
A549 NSCLC = system: A549 NSCLC
HCT-15 colon = system: HCT-15 colon
HCC-2998 colon = system: HCC-2998 colon
786-0 renal = system: 786-0 renal
SNB-19 CNS = system: SNB-19 CNS
SW-620 colon = system: SW-620 colon
NCI-H226 lung = system: NCI-H226 lung

Structure (SMILES)	TGI (MDA-MB-231 breast)	TGI (RPMI-8226 leukemia)	TGI (A549 NSCLC)	TGI (HCT-15 colon)	TGI (HCC-2998 colon)	TGI (786-0 renal)	TGI (SNB-19 CNS)	TGI (SW-620 colon)	TGI (NCI-H226 lung)
Cc1cc(S(=O)(=O)NC(=NCC(=O)NN)NN)c(S)cc1Cl	> 10 µM	> 10 µM	> 10 µM	> 10 µM	> 10 µM	> 10 µM	> 10 µM	> 10 µM	> 10 µM
CCCCCCCC(CC(=O)O)OC(=O)CC(CCCCCCC)OC1OC(C)C(O)C(O)C1OC1OC(C)C(O)C(O)C1O (stereo unspecified)	> 100 µM	> 100 µM	> 100 µM	> 100 µM	> 100 µM	> 100 µM	> 100 µM	> 100 µM	> 100 µM
O=C(Nc1ccccc1)N1N=C(c2ccccc2)C1c1ccccc1 (stereo unspecified)	> 100 µM	30.6 µM	> 100 µM	> 100 µM	> 100 µM	36.6 µM	> 100 µM	> 100 µM	37.3 µM
CN(C)CCNc1nc2ccccc2c2c1C(=O)c1ccccc1-2	2.62 µM	0.599 µM	2.96 µM	1.57 µM	0.511 µM	3.66 µM	5.42 µM	4.9 µM	0.862 µM
CC(C)[Si]1(C(C)C)OCC2OC(n3cnc4c(N)ncnc43)C(N)C2O[Si](C(C)C)(C(C)C)O1 (stereo unspecified)	33.1 µM	7.72 µM	49.5 µM	23.8 µM	14.5 µM	28.3 µM	97.5 µM	> 45.4 µM	25.8 µM
COc1ccccc1OC/C(N=Cc1ccncc1)=N/NC(=O)c1ccncc1	> 100 µM	> 100 µM	> 100 µM	> 100 µM	> 100 µM	> 100 µM	> 100 µM	> 100 µM	> 100 µM
c1ccc(COc2ncccc2C2SCCCS2)cc1	> 100 µM	> 100 µM	> 100 µM	> 100 µM	> 100 µM	> 100 µM	> 100 µM	> 100 µM	> 100 µM
O=C1O/C(=C\c2ccc(O)cc2)C(c2ccc(O)c(Cl)c2)=C1Br	59.9 µM	30.7 µM		26.7 µM	23.6 µM	31.6 µM	62.7 µM	37.9 µM	
COc1cc2c(cc1OC)C1Cc3ccccc3CN1CCC2 (stereo unspecified)	> 100 µM		> 100 µM	> 100 µM	> 100 µM	> 100 µM	> 100 µM	> 100 µM	> 100 µM
COC(=O)C(Cc1ccccc1)NC(=O)CCCNC(=O)OCc1ccccc1 (stereo unspecified)	> 100 µM	> 100 µM	> 100 µM	> 100 µM	> 100 µM	> 100 µM	> 100 µM	> 100 µM	> 100 µM
C=C1c2nc3ccccc3n2C=C(c2ccccc2)N1c1ccc(OC)cc1	> 100 µM	> 100 µM	> 100 µM	20.3 µM		56.8 µM		> 100 µM	35.6 µM
COC1(OC)N=C(N)C2(C#N)/C(=N/N(C)C)CC(C)C12C#N (stereo unspecified)	> 100 µM		> 100 µM	> 100 µM	> 100 µM	> 100 µM	> 100 µM	> 100 µM	> 100 µM
Cc1ccc(Nc2nnc3n2S(=O)(=O)c2cc(C)c(Cl)cc2S3)cc1	82.4 µM	54.9 µM	61.6 µM	51.3 µM	55.8 µM	35.5 µM		> 100 µM	37.4 µM
COc1ccc(S(=O)(=O)Nc2ccc(-c3csc(N4C(=O)/C(=C/C=C\c5ccccc5)N=C4c4ccccc4)n3)cc2)cc1Cl	51.6 µM		> 100 µM	51.5 µM		> 100 µM	> 100 µM	> 100 µM	> 100 µM
Clc1ncc(C(Cl)(Cl)Cl)nc1-c1ccccc1	3.86 µM		22.5 µM	3.42 µM	2.9 µM	5.77 µM	3.19 µM	> 100 µM	39.4 µM
COc1cccc(N2N=C3c4ccccc4-n4c(nc5ccccc54)C3C2N)c1 (stereo unspecified)	> 100 µM	> 100 µM	> 100 µM	> 100 µM	> 100 µM	> 100 µM	> 100 µM	> 100 µM	
C=C1C(=O)O[C@H]2C(=O)[C@H](C)CCC[C@@](C)(O)/C=C\C[C@@]3(C)O[C@@H]3C[C@@H]12	43.6 µM	33.7 µM	38.6 µM	25.9 µM		25 µM	> 100 µM	22.1 µM	> 100 µM
CCOC(=O)C(Cc1c(-c2[nH]c3ccccc3c2CC(NC(=O)CNC(C)=O)C(=O)OCC)[nH]c2ccccc12)NC(=O)CNC(C)=O (stereo unspecified)	40.6 µM	> 100 µM	> 100 µM	> 100 µM	47.8 µM		> 100 µM	> 100 µM	
COc1cc([C@@H]2c3cc4c(cc3[C@@H](Nc3ccc(Cl)cc3C(=O)c3ccccc3Cl)[C@H]3COC(=O)[C@H]23)OCO4)cc(OC)c1OC	> 100 µM		> 100 µM		> 100 µM	> 100 µM	76.1 µM	> 46.1 µM	
COc1ccc(-c2c(C(C)=O)c(C)n(C3OC(CO)C(O)C(O)C3O)c(=S)c2C#N)cc1 (stereo unspecified)	> 100 µM	> 100 µM	> 100 µM	> 100 µM			33.6 µM	> 100 µM	
CC(=O)Oc1ccc2c(c1)c1c(OC(C)=O)c3ccccc3c(OC(C)=O)c1n2Cc1cccc(C)c1	> 100 µM	74.4 µM	> 100 µM	> 100 µM	84.2 µM	> 100 µM	> 100 µM		> 100 µM
c1ccc(C/C(=N\Nc2nc3ccccc3o2)c2ccccn2)cc1	16.7 µM	0.957 µM	> 34.6 µM	4.64 µM		0.136 µM	20.5 µM	4.79 µM	0.363 µM
CC(=O)c1nccc2c1c(C)nc1ccccc12	> 100 µM	61 µM	> 100 µM	> 100 µM			> 100 µM	> 100 µM	67.9 µM
OCc1ccccc1OC1OC(CO)C(O)C(O)C1O (stereo unspecified)	> 100 µM	> 100 µM	> 100 µM	> 100 µM	> 100 µM	> 100 µM		> 100 µM	> 100 µM
